The results in this text go back to patent US20180057505A1, “BICYCLIC HETEROARYL COMPOUNDS USEFUL AS INHIBITORS OF THE PAR-2 SIGNALING PATHWAY” (VERTEX PHARMACEUTICALS INCORPORATED, priority 2015, published 2018).

What all share (type): cell-based
In test [1] the test system is Thrombin-stimulated Ca2+ response in HT-29 cells. The test is described as follows: Ca FLIPR TETRA assay, ANTAGONIST mode, activator 1 U/mL Thrombin. Conditions: HT-29 cells, activator 1 U/mL Thrombin. The method, boiled down:
(§1)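 Compounds are added to calcium 5-loaded HT-29 cells, read once for intrinsic Ca2+ activation, then incubated 30 min at room temperature. The same wells are then stimulated with a fixed final activator level and the Ca2+ response recorded on FLIPR Tetra.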

The subject of test [2] is UTP-stimulated Ca2+ response in HT-29 cells. The test can be described thus: Ca FLIPR TETRA assay, ANTAGONIST mode, activator 0.6 μM UTP. Particulars: HT-29 cells, activator 0.6 μM UTP. The method, boiled down: as §1
For test [3], the target named is T1, PAR2 (HT-29 cells) (Homo sapiens, UniProt P55085).
T1 construct: host or cells: HT-29
T1 sequence (P55085 26-397): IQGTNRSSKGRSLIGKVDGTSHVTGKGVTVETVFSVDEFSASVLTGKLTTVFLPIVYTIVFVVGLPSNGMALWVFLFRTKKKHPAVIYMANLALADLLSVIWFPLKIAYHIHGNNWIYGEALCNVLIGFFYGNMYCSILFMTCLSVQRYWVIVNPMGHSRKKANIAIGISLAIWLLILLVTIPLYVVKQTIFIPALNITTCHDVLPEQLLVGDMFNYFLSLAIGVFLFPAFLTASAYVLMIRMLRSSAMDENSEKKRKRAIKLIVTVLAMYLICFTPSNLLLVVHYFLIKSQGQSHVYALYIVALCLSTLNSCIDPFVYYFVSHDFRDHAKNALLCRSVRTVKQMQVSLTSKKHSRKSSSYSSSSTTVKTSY
The test is described as follows: Ca FLIPR TETRA assay, ANTAGONIST mode, activator 8 μM SLIGKV. Particulars: HT-29 cells; activator 8 μM SLIGKV; Method A: maximal concentration of antagonist 0.1, 1 or 2 μM. The method, boiled down:
as §1

Test [4] has as its target T1, PAR2 (HT-29 cells). The test can be described thus: Ca FLIPR TETRA assay, ANTAGONIST mode, activator 3.1 U/mL trypsin. Conditions: HT-29 cells; activator 3.1 U/mL trypsin; Method A: maximal concentration of antagonist 0.1, 1 or 2 μM. In short, it runs like this: as §1

For the compound `Cc1ccc(C(=O)O)nc1C1CCN(C(=O)c2cc3nc(-c4ccc(Cl)cc4)cc(C(C)(C)C)c3o2)C(C)(C)C1` (stereo not drawn) [Example I-397], the concentration for half-maximal inhibition (IC50) was above 1010 nM in test [1], 760 nM in test [2], 0.6 nM at PAR2 (HT-29 cells) [3] and 0.6 nM on PAR2 (HT-29 cells) [4].

Turning to `Cc1cc(N2CCN(C(=O)c3cc4nc(C5CCC(C)(C)CC5)cc(C(C)(C)C)c4o3)C(C)(C)C2)ncc1C(=O)O` [Example I-398], the half-maximal inhibitory concentration (IC50) in test [1] (Homo sapiens) was above 1010 nM; in test [2] (Homo sapiens), 1010 nM; on PAR2 (HT-29 cells) [3], 0.4 nM; at PAR2 (HT-29 cells) [4], 0.5 nM.

On to `Cc1cc(N2CCN(C(=O)c3cc4nc(-c5ccc(Cl)cc5)cc(C(C)(C)C)c4o3)C(C)(C)C2)ncc1C(=O)O` [Example I-399], for which the IC50 in test [1] (Homo sapiens) is above 1010 nM; in test [2] (Homo sapiens), 860 nM; on PAR2 (HT-29 cells) [3], 0.4 nM; on PAR2 (HT-29 cells) [4], 0.6 nM.

Consider `Cc1cc(N2CCN(C(=O)c3cc4nc(-c5ccc(Cl)c(F)c5)cc(C(C)(C)C)c4o3)C(C)(C)C2)ncc1C(=O)O` [Example I-400], for which the IC50 in test [1] (Homo sapiens) worked out at 1010 nM; in test [2] (Homo sapiens), 810 nM; at PAR2 (HT-29 cells) [3] it was 0.3 nM; on PAR2 (HT-29 cells) [4] it was 0.4 nM.

For the compound `Cc1cc(C(=O)O)nc(N2CCN(C(=O)c3cc4nc(-c5ccc(Cl)cc5)cc(C(C)(C)C)c4o3)C(C)(C)C2)n1` [Example I-401], the IC50 was determined as 960 nM in test [1] (Homo sapiens), 710 nM in test [2] (Homo sapiens), 0.3 nM on PAR2 (HT-29 cells) [3] and 0.5 nM on PAR2 (HT-29 cells) [4].

As for `CC(C)(C)c1cc(-c2ccc(Cl)cc2)nc2cc(C(=O)N3CCN(c4cnccn4)CC3(C)C)oc12` [Example I-402], the IC50 is above 2000 nM in test [1] (Homo sapiens), above 2000 nM in test [2] (Homo sapiens), 21 nM on PAR2 (HT-29 cells) [3] and 15 nM on PAR2 (HT-29 cells) [4].

Consider `Cc1ccnc(N2CCN(C(=O)c3cc4nc(-c5ccc(Cl)cc5)cc(C(C)(C)C)c4o3)C(C)(C)C2)n1` [Example I-403], for which the concentration for half-maximal inhibition (IC50) is above 2000 nM in test [1] (Homo sapiens), above 2000 nM in test [2] (Homo sapiens), 23 nM on PAR2 (HT-29 cells) [3] and 24 nM at PAR2 (HT-29 cells) [4].

In the case of `CC(C)(C)c1cc(-c2ccc(Cl)cc2)nc2cc(C(=O)N3CCN(c4ncccn4)CC3(C)C)oc12` [Example I-404], the IC50 in test [1] (Homo sapiens) is above 2000 nM; in test [2] (Homo sapiens), above 2000 nM; at PAR2 (HT-29 cells) [3] it was 25 nM; at PAR2 (HT-29 cells) [4], 16 nM.

On to `CC(C)(C)c1cc(-c2ccc(Cl)c(F)c2)nc2cc(C(=O)N3CCN(c4ccc(C(=O)O)cn4)C(=O)C3(C)C)oc12` [Example I-405], for which the concentration for half-maximal inhibition (IC50) in test [1] (Homo sapiens) was 750 nM; in test [2] (Homo sapiens), 580 nM; on PAR2 (HT-29 cells) [3], 1.8 nM; at PAR2 (HT-29 cells) [4] it was 1.7 nM.

In the case of `CC(C)(C)c1cc(-c2ccc(Cl)c(F)c2)nc2cc(C(=O)N3CCN(c4ccn[nH]4)C(=O)C3(C)C)oc12` [Example I-406], the IC50 was above 2000 nM in test [1] (Homo sapiens), above 2000 nM in test [2] (Homo sapiens), 10 nM on PAR2 (HT-29 cells) [3] and 8.8 nM at PAR2 (HT-29 cells) [4].

On to `CC(C)(C)c1cc(-c2ccc(Cl)cc2)nc2cc(C(=O)N3CCN(c4ccn[nH]4)C(=O)C3(C)C)oc12` [Example I-407], for which the IC50 was above 2000 nM in test [1] (Homo sapiens), above 2000 nM in test [2] (Homo sapiens), 17 nM at PAR2 (HT-29 cells) [3] and 17 nM at PAR2 (HT-29 cells) [4].

Turning to `Cc1cc(C(=O)O)nc(N2CCN(C(=O)c3cc4nc(C5CCC(C)(C)CC5)cc(C(C)(C)C)c4o3)C(C)(C)C2)n1` [Example I-408], the IC50 came out at 860 nM in test [1] (Homo sapiens), 510 nM in test [2] (Homo sapiens), 0.7 nM at PAR2 (HT-29 cells) [3] and 1 nM at PAR2 (HT-29 cells) [4].

As to `Cc1cc(C(=O)O)nc(N2CCN(C(=O)c3cc4nc(-c5ccc(Cl)c(F)c5)cc(C(C)(C)C)c4o3)C(C)(C)C2=O)n1` [Example I-409], the 50% inhibitory concentration (IC50) in test [1] is above 1010 nM; in test [2] it was 560 nM; on PAR2 (HT-29 cells) [3] it was 0.3 nM; at PAR2 (HT-29 cells) [4] it was 0.5 nM.

In the case of `Cc1nc(N2CCN(C(=O)c3cc4nc(-c5ccc(Cl)cc5)cc(C(C)(C)C)c4o3)C(C)(C)C2)ncc1C(=O)O` [Example I-410], the IC50 in test [1] was above 1010 nM; in test [2], above 1010 nM; at PAR2 (HT-29 cells) [3] it was 0.6 nM; at PAR2 (HT-29 cells) [4] it was 0.9 nM.

On to `Cc1nc(N2CCN(C(=O)c3cc4nc(-c5ccc(Cl)c(F)c5)cc(C(C)(C)C)c4o3)C(C)(C)C2)ccc1C(=O)O` [Example I-411], for which the 50% inhibitory concentration (IC50) is above 2000 nM in test [1] (Homo sapiens), above 2000 nM in test [2] (Homo sapiens), 0.2 nM at PAR2 (HT-29 cells) [3] and 0.3 nM on PAR2 (HT-29 cells) [4].

The IC50 is the concentration at which inhibition is half-maximal.
